Holding throughout (assay type): physicochemical
Data set [1] in a line: Adaptive perfusion (AP) IVRT with 100 kD MWCO mPES hollow fiber filter. The following applies: AP method. An excerpt:
The setup 1000 includes a fresh media reservoir 1002, a particulate filtering device 1004 attached to the fresh media tubing (to prevent particulate contamination), two peristaltic pumps (a first pump 1014 for the sample feed and a second pump 1006 for the fresh media), two additional reservoirs (a first reservoir 1008 for the retentate (also called the feed reservoir) and a second reservoir 1038 for the permeate (also called the permeate reservoir)), a pre-conditioned TFF filter (in particular, an HFF 1020, with first port 1022 and second port 1024 connected to a retentate volume and third port 1032 and fourth port 1040 connected to a permeate volume), a backpressure controlling valve 1028, a magnetic stirrer 1010, a stir plate 1012 for mixing the sample with the media, a pressure monitoring system with three pressure sensors (inlet sensor 1018, retentate sensor 1026, and permeate sensor 1034), a mass flow monitoring system (e.g., flow-meter 1036), a data acquisition system (e.g., computer with software), and a fluid circuit 1030 (e.g., tubing) for interconnecting the various components. HFF 1020 was a Spectrum MicroKros®, 100 kD MWCO, modified polyether sulfone (mPES) membrane, 20 cm^2 surface area (Repligen Corporation, CA, USA). An initial drug product sample of a particular concentration and/or volume was manually spiked into the first reservoir 1008 using conduit 1016.
Pure difluprednate solution and difluprednate polysorbate-80 micelles was evaluated using the setup 1000 of FIG. 10. For pure difluprednate solution, 200 μL of difluprednate solution (1 mg/mL in ethanol) was spiked (via conduit 1016) into 40 mL of release media (10 mM pH 7.4 phosphate buffer mixed with ethanol in the ratio of 80:20 v/v) in reservoir 1008 to reach an initial difluprednate concentration of 5 μg/mL. Ethanol was used as a co-solvent to prevent the precipitation of difluprednate in the media. Difluprednate concentrations in the retentate reservoir 1008 and permeate reservoir 1038 were determined in real time using an in-situ fiber optic UV-Vis system (Pion μDiss Profiler™, Billerica, MA). ZIM analysis was performed to remove polysorbate-80 interference by using wavelength within the range of 271-274 nm (exact ZIM wavelength varied between probes). For difluprednate polysorbate-80 micelles, 1 mL of difluprednate polysorbate-80 micelle solution (100 μg/mL in 3.6% w/v polysorbate-80) was spiked (via conduit 1016) into 40 mL of the release media (10 mM pH 7.4 phosphate buffer) in reservoir 1008 to obtain an initial difluprednate concentration of 2.5 μg/mL. Aliquots of retentate and permeate were collected periodically from the retentate reservoir 1008 and from the permeate tubing (between third port 1032 and permeate reservoir 1038), respectively, and subjected to UPLC analysis to determine difluprednate concentration. Appropriate dilution was performed for the retentate aliquots by using acetonitrile prior to UPLC analysis. The study was conducted at ambient room temperature (i.e., 23.5±1.5° C.).
Several TFF hollow fiber filter modules having different MWCO of 30 kD, 100 kD, 300 kD and 500 kD (Spectrum MicroKros®, modified polyether sulfone (mPES) membrane, 20 cm^2 surface area, Repligen Corporation, CA, USA) were screened initially to select an optimal MWCO for the TFF filter for performing the in vitro release studies. 100 kD MWCO was eventually selected considering the range of globule sizes to be evaluated for the nanoemulsions. 200 μL of nanoemulsion was spiked (via conduit 1016) directly into 40 mL of media (10 mM pH 7.4 phosphate buffer) in reservoir 1008 to provide an initial concentration of 2.5 μg/mL for difluprednate. Aliquots of retentate and permeate were collected periodically from the retentate reservoir 1008 and from the permeate tubing (between outlet 1031 and 1038), respectively, and subjected to UPLC analysis to determine difluprednate concentration. […]

Data set [2] in a line: Reverse-dialysis release/diffusion of pure difluprednate solution (USP 2 apparatus, 100 kD MWCO dialysis tubes). The following applies: pH 7.4 phosphate buffer:ethanol 80:20, 34° C. Here is the method: Release of difluprednate from pure drug solution was studied using a reverse-dialysis setup, where drug was transferred from outside a dialysis device to the inside. As compared to a dialysis configuration, the reverse-dialysis configuration provides an advantage in terms of allowing for better control of dilution and maximum drug concentration gradient across oil/water interface to drive the drug release. Diffusion of difluprednate through dialysis membrane was determined in a USP 2 apparatus setup (Vision Elite 8, Teledyne Hanson Research, with mini-vessels 800) using commercially available dialysis tubes 808 (Float-A-Lyzer G2, 100 kD MWCO, regenerated cellulose, Spectrum Labs, CA, USA), as shown in FIG. 8A. Each dialysis tube 808 was cleaned with 1.0% w/v polysorbate-80 solution in deionized water and subsequently washed thoroughly with deionized water. Dialysis tubes 808, containing about 1 mL of the release media (i.e., 10 mM pH 7.4 phosphate buffer mixed with ethanol in the ratio of 80:20 v/v), were suspended inside the USP 2 mini-vessels 800. Agitation was controlled at 100 rpm and the temperature was maintained at 34° C. Using conduit 806, 1 mL of difluprednate solution (1 mg/mL in ethanol) was spiked directly into the vessel 800, which contained 200 mL release media 802, in order to achieve an initial drug concentration of 5 μg/mL.
(§1) Within dialysis tube 808, difluprednate concentration (e.g., drug that had diffused through the membrane filter of dialysis device 808) was monitored in real time using an in-situ fiber optic probe 804, in particular a fiber optic UV-Vis system (Pion μDiss Profiler™, Billerica, MA). The scanning frequency was once every minute for the first 6 hours, then it switched to once every 5 minutes for the next 18 hours. After first 24 hours, the scanning frequency was changed to once every 10 minutes for the next 40 hours. For the last 104 hours, the scanning frequency was once every 30 min. The total experimental time was 168 hours (7 days). Pure difluprednate solution diluted with release medium at the same concentration of 5 μg/mL was also monitored in parallel as a control to determine any possible change in drug concentration, e.g., due to degradation. Prior to the start of the experiment, UV signals were calibrated using various concentrations of difluprednate standard solutions (0.05, 0.10, 0.50, 1.00, 2.00, 3.00, 4.00, and 6.00 μg/mL). Zero Intercept Method (ZIM) analysis was performed to remove polysorbate-80 interference by using wavelength within the range of 271-274 nm (exact ZIM wavelength varied between probes). Ethanol was used as a co-solvent to prevent the precipitation of difluprednate in the release media.

A short description of data set [3]: Control: pure difluprednate solution diluted with release medium, monitored for degradation. Particulars: control sample, at 24 hrs; 5 μg/mL in release medium; n=1. Here is the method:
as §1

As for `CCCC(=O)O[C@]1(C(=O)COC(C)=O)CC[C@H]2[C@@H]3C[C@H](F)C4=CC(=O)C=C[C@]4(C)[C@@]3(F)[C@@H](O)C[C@@]21C` [Pure drug (DFP) solution, Difluprednate], the “time to reach 90% of drug release” value in data set [1] (permeate (FIG. 12A)) is recorded as “less than 15 minutes”. For the same compound, in data set [1] (Mean ± SD, n = 3), the “Permeate Maximum Drug Release” value is reported as 93.7 ± 5.5% and the “Permeate t50” value was 5.3 ± 0.6 min. Moreover, in data set [1] (Q = 100*(1 − e^−k*t), Mean ± SD, n = 3, room temperature), the “Permeate k* (first-order rate constant)” value was 0.146 ± 0.018 min⁻¹. The “Retentate k* (first-order rate constant)” value in data set [1] (Q = 100*e^−k*t, Mean ± SD, n = 3, room temperature) stood at 0.211 ± 0.056 min⁻¹. Also, in data set [1] (in less than 15 minutes), the “difluprednate transferred across the membrane (into the permeate)” value is listed as “more than 90%”. Further, in data set [2] (100 kD MWCO), the “drug diffused at plateau” value is reported as “about 75%” and the “time for difluprednate concentration to reach plateau” value is roughly 8 h. Also, the “time for 50% of difluprednate to diffuse across the dialysis membrane” value in data set [2] (100 kD MWCO, 100 rpm, 5 μg/mL) is “more than 3 hours”. Also, in data set [2] (inside dialysis tube), the “time after which decrease in difluprednate concentration was observed (degradation in alkaline media)” value is “about 10 hours”. The “pure drug remaining in the bulk media” value in data set [3] is listed as 85%.

The values above are taken from patent US20240069001A1, “ADAPTIVE PERFUSION SYSTEMS AND METHODS FOR DRUG RELEASE TESTING” (The United States of America, as represented by the …, priority 2020, published 2024).
